From patent publication US10273233B2, “Inhibitors of influenza viruses replication” (Vertex Pharmaceuticals Incorporated, priority 2015, dated 2019)
Read-outs that look alike come from different tables or passages of the source.

Legend:
A/WS/33 = assay: 3-day CP assay in MDCK cells; type: cell-based; conditions: Influenza A virus
A/NWS/33 = assay: 3-day CP assay in MDCK cells; type: cell-based, influenza A; conditions: Influenza A virus, MDCK
A/Puerto Rico/8/34 = assay: 3-day CP assay in MDCK cells; type: cell-based; conditions: Influenza A virus
A/Weiss/43 = assay: 3-day CP assay in MDCK cells; type: cell-based; conditions: Influenza A virus
A/FM/1/47 = assay: 3-day CP assay in MDCK cells; type: cell-based; conditions: Influenza A virus
A/Mal/302/54 = assay: 3-day CP assay in MDCK cells; type: cell-based; conditions: Influenza A virus
A/Denver/1/57 = assay: 3-day CP assay in MDCK cells; type: cell-based; conditions: Influenza A virus
A/Aichi/2/68 = assay: 3-day CP assay in MDCK cells; type: cell-based; conditions: Influenza A virus
A/Hong Kong/8/68 = assay: 3-day CP assay in MDCK cells; type: cell-based; conditions: Influenza A virus
A/Port Chalmers/1/73 = assay: 3-day CP assay in MDCK cells; type: cell-based; conditions: Influenza A virus
A/Victoria/3/75 = assay: 3-day CP assay in MDCK cells; type: cell-based; conditions: Influenza A virus
A/New Jersey/8/76 = assay: microbe, parasite or virus in culture; type: cell-based; conditions: Influenza A virus, MDCK
A/Wisconsin/67/2005 = assay: 3-day CP assay in MDCK cells; type: cell-based; conditions: Influenza A virus
A/Chelyabinsk/1/200 = assay: 3-day CP assay in MDCK cells; type: cell-based; conditions: Influenza A virus
A/Fukushima/141/2006 = assay: 3-day CP assay in MDCK cells; type: cell-based; conditions: Influenza A virus
A/Georgia/17/2006 = assay: 3-day CP assay in MDCK cells; type: cell-based; conditions: Influenza A virus
A/Georgia/20/2006 = assay: 3-day CP assay in MDCK cells; type: cell-based, influenza A; conditions: Influenza A virus, MDCK
A/Hawaii/2/2006 = assay: 3-day CP assay in MDCK cells; type: cell-based; conditions: Influenza A virus
A/Missouri/3/2006 = assay: 3-day CP assay in MDCK cells; type: cell-based; conditions: Influenza A virus
A/Nebraska/1/2006 = assay: 3-day CP assay in MDCK cells; type: cell-based; conditions: Influenza A virus
A/Santiago/7981/2006 = assay: 3-day CP assay in MDCK cells; type: cell-based; conditions: Influenza A virus
A/St. Petersburg8/2006 = assay: 3-day CP assay in MDCK cells; type: cell-based; conditions: Influenza A virus
A/Virginia/01/2006 = assay: 3-day CP assay in MDCK cells; type: cell-based; conditions: Influenza A virus
A/Cambodia0371/2007 = assay: 3-day CP assay in MDCK cells; type: cell-based; conditions: Influenza A virus
A/Henan/Jinshui/147/2007 = assay: 3-day CP assay in MDCK cells; type: cell-based; conditions: Influenza A virus
A/South Dakota/6/2007 = assay: 3-day CP assay in MDCK cells; type: cell-based; conditions: Influenza A virus
A/Texas/12/2007 = assay: 3-day CP assay in MDCK cells; type: cell-based; conditions: Influenza A virus
A/Uruguay/716/2007 = assay: 3-day CP assay in MDCK cells; type: cell-based; conditions: Influenza A virus
A/California/07/2009 = assay: 3-day CP assay in MDCK cells; type: cell-based; conditions: Influenza A virus, MDCK; A/California/07/2009
[1] = system: A/California/07/2009 NYMC, X-179A; assay: 3-day CP assay in MDCK cells; type: cell-based; conditions: Influenza A virus
A/Mexico/4108/2009 = assay: 3-day CP assay in MDCK cells; type: cell-based; conditions: Influenza A virus
A/New York/18/2009 = assay: 3-day CP assay in MDCK cells; type: cell-based; conditions: Influenza A virus
A/Texas/48/2009 = assay: 3-day CP assay in MDCK cells; type: cell-based; conditions: Influenza A virus
A/Virginia/ATCC2/2009 = assay: 3-day CP assay in MDCK cells; type: cell-based; conditions: Influenza A virus
A/Virginia/ATCC3/2009 = assay: 3-day CP assay in MDCK cells; type: cell-based; conditions: Influenza A virus
A/Swine/Iowa/15/30 = assay: microbe, parasite or virus in culture; type: cell-based, influenza A; conditions: Influenza A virus, MDCK, in Sus scrofa
A/Swine/1976/31 = assay: microbe, parasite or virus in culture; type: cell-based; conditions: Influenza A virus, MDCK, in Sus scrofa
A/Equine/Miami/63 = assay: microbe, parasite or virus in culture; type: cell-based; conditions: Influenza A virus, MDCK
B/Lee/40 = assay: 3-day CP assay in MDCK cells; type: cell-based; conditions: Influenza B virus
B/Mass/3/66 = assay: 3-day CP assay in MDCK cells; type: cell-based; conditions: Influenza B virus
B/Russia/69 = assay: 3-day CP assay in MDCK cells; type: cell-based; conditions: Influenza B virus
B/Memphis/20/1996--070 = assay: 3-day CP assay in MDCK cells; type: cell-based; conditions: Influenza B virus
B/Memphis/20/1996--071 = assay: 3-day CP assay in MDCK cells; type: cell-based; conditions: Influenza B virus
[2] = 6-month solid-state (open dish) stability; type: physicochemical; conditions: 6 months open dish; 40° C./75% RH, 5° C./60% RH, 25° C./60% RH, 40° C./dry
Experimental: A 6-month solid-state (open dish) stability study was performed for Hydrate 3 of Compound (1). Hydrate 3 of Compound (1) was stored for 6 months under the following conditions: 40° C./75% RH, 5° C./60% RH, 25° C./60% RH, and 40° C./dry.

[3] = Toxicology formulation stability in 0.5% MC; type: physicochemical; conditions: 0.5% MC in water suspension at 1, 60 and 100 mg/mL; ambient and 5° C.; two weeks
Experimental: Hydrate 3 of Compound (1) was evaluated for chemical stability and homogeneity in 0.5% MC in water (suspension) at 1, 60 mg/mL and 100 mg/mL under ambient and refrigerated conditions (5° C.) for two weeks.

[4] = rat
[5] = monkey
[6] = Two week solubility study (final form); conditions: Nitromethane
[7] = Intrinsic dissolution rate determination

Structure (SMILES): NC(=O)c1nc(F)c[nH]c1=O [Compound T-705, favipiravir]
- EC50 (A/WS/33): > 10 µM
- EC50 (A/NWS/33): 7.6 µM
- EC50 (A/Puerto Rico/8/34): > 10 µM
- EC50 (A/Weiss/43): 1.5 µM
- EC50 (A/FM/1/47): 4.5 µM
- EC50 (A/Mal/302/54): 3.4 µM
- EC50 (A/Denver/1/57): 1.1 µM
- EC50 (A/Aichi/2/68): > 10 µM
- EC50 (A/Hong Kong/8/68): 4.5 µM
- EC50 (A/Port Chalmers/1/73): 1.9 µM
- EC50 (A/Victoria/3/75): > 10 µM
- EC50 (A/New Jersey/8/76): 2.1 µM
- EC50 (A/Wisconsin/67/2005): > 10 µM
- EC50 (A/Chelyabinsk/1/200): 6.5 µM
- EC50 (A/Fukushima/141/2006): 1.9 µM
- EC50 (A/Georgia/17/2006): 9.6 µM
- EC50 (A/Georgia/20/2006): 6.3 µM
- EC50 (A/Hawaii/2/2006): 5.5 µM
- EC50 (A/Missouri/3/2006): 5.3 µM
- EC50 (A/Nebraska/1/2006): 6.4 µM
- EC50 (A/Santiago/7981/2006): 0.86 µM
- EC50 (A/St. Petersburg8/2006): > 10 µM
- EC50 (A/Virginia/01/2006): 3.1 µM
- EC50 (A/Cambodia0371/2007): 6.5 µM
- EC50 (A/Henan/Jinshui/147/2007): 6.1 µM
- EC50 (A/South Dakota/6/2007): 7.1 µM
- EC50 (A/Texas/12/2007): 7.1 µM
- EC50 (A/Uruguay/716/2007): 4.5 µM
- EC50 (A/California/07/2009): 2 µM
- EC50 [1]: > 10 µM
- EC50 (A/Mexico/4108/2009): > 10 µM
- EC50 (A/New York/18/2009): 1.3 µM
- EC50 (A/Texas/48/2009): 9.3 µM
- EC50 (A/Virginia/ATCC2/2009): 5.3 µM
- EC50 (A/Virginia/ATCC3/2009): 7.7 µM
- EC50 (A/Swine/Iowa/15/30): > 10 µM
- EC50 (A/Swine/1976/31): > 10 µM
- EC50 (A/Equine/Miami/63): > 10 µM
- EC50 (B/Lee/40): 6.5 µM
- EC50 (B/Mass/3/66): 3.4 µM
- EC50 (B/Russia/69): 0.29 µM
- EC50 (B/Memphis/20/1996--070): 2.4 µM
- EC50 (B/Memphis/20/1996--071): > 10 µM

Structure (SMILES): CC(C)(C)[C@@H](CC(=O)O)Nc1nc(-c2c[nH]c3ncc(F)cc23)ncc1F [Hydrate 3 of Compound (1)]
- chemical changes on storage [2]: no significant chemical changes
- crystallinity on storage by XRPD [2]: remained crystalline
- changes in purity (% Area) by HPLC [3]: no changes were observed
- dose up to which exposures increase proportionally ([4]; in vivo): up to 500 mg/kg
- dose up to which exposures increase proportionally ([5]; in vivo): up to 250 mg/kg
- bulk density (Processing properties): 0.172 g/cc
- tap density (Processing properties): 0.383 g/cc
- average flow factor (FFc) (Processing properties; Ring Shear Testing (RST), good flow is 4-10): 6.8
- tensile strength (Processing properties; at 180 MPa compression pressure): 2 MPa
- Final Form (After two Weeks) [6]: Solvate
- intrinsic dissolution rate (IDR) ([7]; FaSSGF): 0.020 mg/min/cm^2
- intrinsic dissolution rate (IDR) ([7]; FaSSIF): 0.012 mg/min/cm^2

Structure (SMILES): CC(C)(C)[C@@H](CC(=O)O)Nc1nc(-c2c[nH]c3ncc(F)cc23)ncc1F [Hydrate 2 of Compound (1)]
- in vivo exposures (AUC), comparison of formulations ([4]; 30 mg/kg, pH 8): statistically comparable
- in vivo exposures (AUC), comparison of formulations ([5]; 40 mg/kg, pH 8): statistically comparable

Structure (SMILES): CCC(CC)O[C@@H]1C=C(C(=O)O)C[C@H](N)[C@H]1NC(C)=O [Oseltamivir Carboxylate]
- EC50 (A/WS/33): > 10 µM
- EC50 (A/NWS/33): > 10 µM
- EC50 (A/Puerto Rico/8/34): > 10 µM
- EC50 (A/Weiss/43): 0.49 µM
- EC50 (A/FM/1/47): 6.4 µM
- EC50 (A/Mal/302/54): 1.1 µM
- EC50 (A/Denver/1/57): > 10 µM
- EC50 (A/Aichi/2/68): 5 µM
- EC50 (A/Hong Kong/8/68): 0.038 µM
- EC50 (A/Port Chalmers/1/73): 0.12 µM
- EC50 (A/Victoria/3/75): > 10 µM
- EC50 (A/New Jersey/8/76): 3.8 µM
- EC50 (A/Wisconsin/67/2005): 0.35 µM
- EC50 (A/Chelyabinsk/1/200): > 10 µM
- EC50 (A/Fukushima/141/2006): 0.58 µM
- EC50 (A/Georgia/17/2006): > 10 µM
- EC50 (A/Georgia/20/2006): > 10 µM
- EC50 (A/Hawaii/2/2006): > 10 µM
- EC50 (A/Missouri/3/2006): 2.5 µM
- EC50 (A/Nebraska/1/2006): > 10 µM
- EC50 (A/Santiago/7981/2006): > 10 µM
- EC50 (A/St. Petersburg8/2006): 9.3 µM
- EC50 (A/Virginia/01/2006): 0.83 µM
- EC50 (A/Cambodia0371/2007): 7.8 µM
- EC50 (A/Henan/Jinshui/147/2007): > 10 µM
- EC50 (A/South Dakota/6/2007): 8.2 µM
- EC50 (A/Texas/12/2007): 8.5 µM
- EC50 (A/Uruguay/716/2007): > 10 µM
- EC50 (A/California/07/2009): > 10 µM
- EC50 [1]: > 10 µM
- EC50 (A/Mexico/4108/2009): > 10 µM
- EC50 (A/New York/18/2009): 0.16 µM
- EC50 (A/Texas/48/2009): > 10 µM
- EC50 (A/Virginia/ATCC2/2009): > 10 µM
- EC50 (A/Virginia/ATCC3/2009): > 10 µM
- EC50 (A/Swine/Iowa/15/30): 7.8 µM
- EC50 (A/Swine/1976/31): 0.56 µM
- EC50 (A/Equine/Miami/63): 0.25 µM
- EC50 (B/Lee/40): > 10 µM
- EC50 (B/Mass/3/66): 6.7 µM
- EC50 (B/Russia/69): 6 µM
- EC50 (B/Memphis/20/1996--070): > 10 µM
- EC50 (B/Memphis/20/1996--071): > 10 µM
